Measured values taken from patent publication US9695155B2, “Herbicidal substituted pyrimidinyloxy benzene compounds” (E. I. DU PONT DE NEMOURS AND COMPANY, priority 2013, dated 2017).

Tests used:
[1] = system: morningglory; test: Test C preemergence; assay type: in vivo, Ipomoea coccinea; details: for Morningglory plant response rating: preemergence; for Plant response rating, Morningglory: Preemergence, scale 0 to 100, 0 no effect, 100 complete control
From the text: (§1) Seeds of plant species selected from blackgrass (Alopecurus myosuroides), Italian ryegrass (Lolium multiflorum), wheat, winter (winter wheat, Triticum aestivum), galium (catchweed bedstraw, Galium aparine), corn (Zea mays), large (Lg) crabgrass (Digitaria sanguinalis), giant foxtail (Setaria faberii), johnsongrass (Sorghum halepense), lambsquarters (Chenopodium album), morningglory (Ipomoea coccinea), yellow nutsedge (Cyperus esculentus), pigweed (Amaranthus retroflexus), ragweed (common ragweed, Ambrosia elatior), soybean (Glycine max), barnyardgrass (Echinochloa crus-galli), oilseed rape (Brassica napus), waterhemp (common waterhemp, Amaranthus rudis), kochia (Kochia scoparia), wild oat (Avena fatua), surinam grass (Brachiaria decumbens), foxtail, green (green foxtail, Setaria viridis), goosegrass (Eleusine indica), bromegrass, downy (downy bromegrass, Bromus tectorum), nightshade (eastern black nightshade, Solanum ptycanthum), cocklebur (common cocklebur, Xanthium strumarium), cupgrass, woolly (woolly cupgrass, Eriochloa villosa), bermudagrass (Cynodon dactylon), sunflower, (common oilseed sunflower, Helianthus annuus), Russian thistle (Salsola kali), and velvetleaf (Abutilon theophrasti) were planted into a blend of loam soil and sand and treated preemergence with test chemicals formulated in a non-phytotoxic solvent mixture which included a surfactant.
(§2) At the same time, plants selected from these crop and weed species and also barley, winter (winter barley, Hordeum vulgare), windgrass (Apera spica-venti), chickweed (common chickweed, Stellaria media), deadnettle (henbit deadnettle, Lamium amplexicaule), and canarygrass (littleseed canarygrass, Phalaris minor) were planted in pots containing Redi-Earth® planting medium (Scotts Company, 14111 Scottslawn Road, Marysville, Ohio 43041) comprising spaghnum peat moss, vermiculite, wetting agent and starter nutrients and treated with postemergence applications of test chemicals formulated in the same manner. Plants ranged in height from 2 to 18 cm (1- to 4-leaf stage) for postemergence treatments. Treated plants and controls were maintained in a greenhouse for 13 to 15 days, after which time all species were compared to controls and visually evaluated. Plant response ratings, summarized in Table C, are based on a scale of 0 to 100 where 0 is no effect and 100 is complete control. A dash (-) response means no test result.

[2] = system: wheat, winter; test: Test C preemergence; assay type: in vivo, Triticum aestivum; details: for Wheat plant response rating: preemergence; for Plant response rating, Wheat: Preemergence, scale 0 to 100, 0 no effect, 100 complete control
From the text: as §1, §2

[3] = system: yellow nutsedge; test: Test C postemergence; assay type: in vivo, Cyperus esculentus; details: for Plant response rating, Nutsedge, Yellow: Postemergence, scale 0 to 100 (0 no effect, 100 complete control)
Summary of the method: (§3)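 Visual injury score versus untreated controls, 0 = no effect, 100 = complete control, taken 13 to 15 days after treatment in the greenhouse. Pre-emergence pots held loam/sand; post-emergence plants grew in sphagnum peat/vermiculite mix and were sprayed at the 1- to 4-leaf stage.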

[4] = system: ragweed; test: Test C postemergence; assay type: in vivo, Ambrosia elatior; details: for Plant response rating, Ragweed: Postemergence, scale 0 to 100 (0 no effect, 100 complete control)
Summary of the method: as §3

[5] = system: wheat, winter; test: Test C postemergence; assay type: in vivo, Triticum aestivum; details: for Plant response rating, Wheat: Postemergence, scale 0 to 100 (0 no effect, 100 complete control)
Summary of the method: as §3

[6] = system: galium; test: Test C postemergence; assay type: in vivo, Galium aparine; details: for Plant response rating, Galium: Postemergence
Summary of the method: as §3

[7] = system: waterhemp; test: Test C postemergence; assay type: in vivo, Amaranthus rudis; details: for Plant response rating, Waterhemp: Postemergence, scale 0 to 100 (0 no effect, 100 complete control)
Summary of the method: as §3

[8] = system: barnyardgrass; test: Test A postemergence; assay type: in vivo, Echinochloa crus-galli
Summary of the method: (§4)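 Visual injury scored 0–100 (100 = complete control) against untreated controls about 10 days after treatment in a greenhouse. Test chemicals, formulated with surfactant in non-phytotoxic solvent, were sprayed on soil preemergence or on 2-10 cm, one- to two-leaf plants postemergence.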

[9] = system: velvetleaf; test: Test C preemergence; assay type: in vivo, Abutilon theophrasti; details: for Velvetleaf plant response rating: preemergence; for Plant response rating, Velvetleaf: Preemergence, scale 0 to 100, 0 no effect, 100 complete control
From the text: as §1, §2

[10] = system: soybean; test: Test C preemergence; assay type: in vivo, Glycine max; details: for Soybean plant response rating: preemergence; for Plant response rating, Soybean: Preemergence, scale 0 to 100, 0 no effect, 100 complete control
From the text: as §1, §2

[11] = system: wild oat; test: Test C postemergence; assay type: in vivo, Avena fatua; details: for Plant response rating, Oat, Wild: Postemergence, scale 0 to 100 (0 no effect, 100 complete control)
Summary of the method: as §3

[12] = system: Italian ryegrass; test: Test C preemergence; assay type: in vivo, Lolium multiflorum; details: for Ryegrass, Italian plant response rating: preemergence; for Plant response rating, Ryegrass, Italian: Preemergence, scale 0 to 100, 0 no effect, 100 complete control
From the text: as §1, §2

[13] = system: corn; test: Test A postemergence; assay type: in vivo, Zea mays
Summary of the method: as §4

[14] = system: barnyardgrass; test: Test C postemergence; assay type: in vivo, Echinochloa crus-galli; details: for Plant response rating, Barnyardgrass: Postemergence
Summary of the method: as §3

[15] = system: corn; test: Test A preemergence; assay type: in vivo, Zea mays; details: for Corn plant response rating: 500 g ai/ha
Summary of the method: as §4

[16] = 16 g ai/ha, scale 0 to 100 (0 no effect, 100 complete control)
[17] = 62 g ai/ha, scale 0 (no effect) to 100 (complete control)
[18] = 125 g ai/ha, scale 0 (no effect) to 100 (complete control)
[19] = 16 g ai/ha, postemergence, visual rating, scale 0 to 100 (0 no effect, 100 complete control), 13 to 15 days
[20] = 31 g ai/ha, scale 0 to 100 (0 no effect, 100 complete control), 13 to 15 days
[21] = 62 g ai/ha, scale 0 to 100 (0 no effect, 100 complete control)
[22] = 125 g ai/ha, 0 to 100 scale where 0 is no effect and 100 is complete control
[23] = 500 g ai/ha, 0 to 100 scale where 0 is no effect and 100 is complete control
[24] = 0 to 100 scale where 0 is no effect and 100 is complete control
[25] = 31 g ai/ha, scale 0 to 100 (0 no effect, 100 complete control)
[26] = 125 g ai/ha, 0 to 100 scale, 0 no effect, 100 complete control

Compound: N#Cc1cccc(Oc2ncc(Cl)cn2)c1-n1cc(OC(F)F)cn1 [Compound 97]
- Morningglory plant response rating [1, 16]: 40
- Morningglory plant response rating [1, 17]: 100
- Morningglory plant response rating [1, 18]: 100
- Plant response rating, Morningglory ([1]; 31 g ai/ha): 98
- Wheat plant response rating [2, 16]: 0
- Wheat plant response rating [2, 17]: 60
- Wheat plant response rating [2, 18]: 90
- Plant response rating, Wheat ([2]; 31 g ai/ha): 10
- Plant response rating (0 to 100), Nutsedge, Yellow ([3]; 125 g ai/ha, postemergence): 5
- Plant response rating, Nutsedge, Yellow ([3]; 31 g ai/ha, 13 to 15 days): 5
- Plant response rating, Nutsedge, Yellow ([3]; 62 g ai/ha): 5
- Plant response rating (0 to 100), Ragweed ([4]; 125 g ai/ha, postemergence): 70
- Plant response rating, Ragweed ([4]; 31 g ai/ha, 13 to 15 days): 40
- Plant response rating, Ragweed ([4]; 62 g ai/ha): 60
- Plant response rating (0 to 100), Wheat ([5]; 125 g ai/ha, postemergence): 10
- Plant response rating, Wheat ([5]; 31 g ai/ha, 13 to 15 days): 5
- Plant response rating, Wheat ([5]; 62 g ai/ha): 5
- Galium plant response rating [6, 19]: 55
- Plant response rating (0 to 100), Galium ([6]; 125 g ai/ha, postemergence): 90
- Plant response rating, Galium [6, 20]: 75
- Plant response rating, Galium [6, 21]: 85
- Plant response rating (0 to 100), Waterhemp ([7]; 125 g ai/ha, postemergence): 95
- Plant response rating, Waterhemp ([7]; 31 g ai/ha, 13 to 15 days): 85
- Plant response rating, Waterhemp ([7]; 62 g ai/ha): 90
- Plant response rating, Barnyardgrass [8, 22]: 90
- Plant response rating, Barnyardgrass [8, 23]: 100
- Velvetleaf plant response rating [9, 16]: 40
- Velvetleaf plant response rating [9, 17]: 100
- Velvetleaf plant response rating [9, 18]: 100
- Plant response rating, Velvetleaf ([9]; 31 g ai/ha): 95
- Soybean plant response rating [10, 16]: 50
- Soybean plant response rating [10, 17]: 95
- Soybean plant response rating [10, 18]: 98
- Plant response rating, Soybean ([10]; 31 g ai/ha): 90
- Plant response rating (0 to 100), Oat, Wild ([11]; 125 g ai/ha, postemergence): 25
- Plant response rating, Oat, Wild ([11]; 31 g ai/ha, 13 to 15 days): 10
- Plant response rating, Oat, Wild ([11]; 62 g ai/ha): 15
- Ryegrass, Italian plant response rating [12, 16]: 0
- Ryegrass, Italian plant response rating [12, 17]: 85
- Ryegrass, Italian plant response rating [12, 18]: 90
- Plant response rating, Ryegrass, Italian ([12]; 31 g ai/ha): 60
- Plant response rating, Corn [13, 22]: 60
- Plant response rating, Corn [13, 23]: 90
- Barnyardgrass plant response rating [14, 19]: 10
- Plant response rating (0 to 100), Barnyardgrass ([14]; 125 g ai/ha, postemergence): 15
- Plant response rating, Barnyardgrass [14, 20]: 10
- Plant response rating, Barnyardgrass [14, 21]: 10
- Plant response rating, Corn [15, 22]: 40
- Corn plant response rating ([15]; 0 to 100 scale, 0 no effect, 100 complete control, approx. 10 days): 60

Compound: FC(F)c1cccc(Oc2ncc(Cl)cn2)c1-n1cc(C(F)(F)F)cn1 [Compound 170]
- Morningglory plant response rating [1, 16]: 0
- Morningglory plant response rating [1, 17]: 40
- Morningglory plant response rating [1, 18]: 100
- Wheat plant response rating [2, 16]: 0
- Wheat plant response rating [2, 17]: 20
- Wheat plant response rating [2, 18]: 60
- Barnyardgrass plant response rating [8, 22]: 70
- Plant response rating, Barnyardgrass [8, 23]: 90
- Velvetleaf plant response rating [9, 16]: 25
- Velvetleaf plant response rating [9, 17]: 80
- Velvetleaf plant response rating [9, 18]: 100
- Soybean plant response rating [10, 16]: 5
- Soybean plant response rating [10, 17]: 45
- Soybean plant response rating [10, 18]: 55
- Ryegrass, Italian plant response rating [12, 16]: 5
- Ryegrass, Italian plant response rating [12, 17]: 75
- Ryegrass, Italian plant response rating [12, 18]: 90
- Corn plant response rating [13, 22]: 80
- Plant response rating, Corn [13, 23]: 90
- Plant response rating, Corn [15, 22]: 0
- Corn plant response rating [15, 24]: 20

Compound: NC(=S)c1cccc(Oc2ncc(Cl)cn2)c1-n1cc(Cl)cn1 [Compound 292]
- Morningglory plant response rating [1, 16]: 25
- Morningglory plant response rating [1, 25]: 30
- Morningglory plant response rating [1, 18]: 70
- Plant response rating, Morningglory ([1]; 62 g ai/ha): 35
- Wheat plant response rating [2, 16]: 0
- Wheat plant response rating [2, 25]: 0
- Wheat plant response rating [2, 18]: 15
- Plant response rating, Wheat ([2]; 62 g ai/ha): 10
- Plant response rating, Barnyardgrass [8, 26]: 60
- Plant response rating, Barnyardgrass [8, 23]: 90
- Velvetleaf plant response rating [9, 16]: 15
- Velvetleaf plant response rating [9, 25]: 35
- Velvetleaf plant response rating [9, 18]: 100
- Plant response rating, Velvetleaf ([9]; 62 g ai/ha): 98
- Soybean plant response rating [10, 16]: 5
- Soybean plant response rating [10, 25]: 40
- Soybean plant response rating [10, 18]: 90
- Plant response rating, Soybean ([10]; 62 g ai/ha): 85
- Ryegrass, Italian plant response rating [12, 16]: 0
- Ryegrass, Italian plant response rating [12, 25]: 0
- Ryegrass, Italian plant response rating [12, 18]: 85
- Plant response rating, Ryegrass, Italian ([12]; 62 g ai/ha): 10
- Plant response rating, Corn [13, 26]: 50
- Plant response rating, Corn [13, 23]: 80
- Corn plant response rating (0 to 100 scale) ([15]; 125 g ai/ha): 20
- Corn plant response rating [15, 24]: 30
